Assay results from patent US9725554B2, “Dendritic polyurea for solubilizing active substances of low solubility” (BASF SE, priority 2009, dated 2017).

Experiments:
[1] = physchem; settings: pH 7, aqueous buffer, thermodynamic from solid
Experimental: Then 0.2 g of each active ingredient was weighed into the batch to give a supersaturated solution. […] The mixture was then stirred at room temperature for 72 hours, using a magnetic stirrer. After a rest time of one hour, unsolubilized active ingredient was removed by filtration. The resulting clear or opaque solution was then analyzed for its active ingredient content by means of UV spectroscopy or HPLC.

[2] = Experimental: Then 100 mg of each active ingredient was weighed into the batch to give a supersaturated solution. The mixture was then stirred at room temperature for 24 hours, using a magnetic stirrer. After a rest time of one hour, unsolubilized active ingredient was removed by centrifuging. The resulting clear or opaque solution was then analyzed for its active ingredient content by means of UV spectroscopy.
The solubility was determined as described in procedure 2.

**Q.** For `Clc1ccccc1C(c1ccccc1)(c1ccccc1)n1ccnc1` [Clotrimazole], which solubility at 72 h [1] is on record?
**A.** < 0.1 mg/mL

**Q.** For “polyethylene glycol monomethyl ether [PEG monomethyl ether]”, which “Solubility of Fipronil in the presence of polymer” value [2] is on record?
**A.** 0.006 mg/mL
